Type in all cases: cell-based
One data set deals with T1, rat TRPM8 channel (Rattus norvegicus, UniProt Q8R455).
T1 construct: expressed in transfected cells; host or cells: HEK293 (stably transfected)
Description: Ca2+ microfluorometry, menthol-induced Ca2+ influx in HEK293 cells expressing rat TRPM8. As to conditions: 100 µM menthol, HEK-rTRPM8; for % Blockade 5 µM: 5 µM compound; for % Blockade 50 µM: 50 µM compound; for IC50: Ca2+ microfluorometry. Here is the method:
The ability to inhibit menthol-induced Ca^2+ intracellular influx into the cytosol on HEK293 cells heterologously expressing the rat TRPM8 channel was measured and compared to that of AMTB, a well-known TRPM8 antagonist. Representative recordings of fluorescence obtained in microfluorometry experiments for selected compounds are in Supplementary Fig. S3.
Human embryonic kidney cell line (HEK) stably transfected with rTRPM8 or h-TRPV1 were used as previously described. Briefly, cells were seeded in 96-well plates at a cell density of 30,000 cells 2 days before treatment. Buffer used was HBBS (in mM): 138 NaCl, 5.33 KCl, 1.26 CaCl2, 0.5 MgCl-6H2O, 0.4 MgSO4-7H2O, 4 NaHCO3 0.44 KH2PO4, 0.3 Na2HPO4, pH 7.4. The day of treatment the medium was replaced with 100 µL of the dye loading solution Fluo-4 NW supplemented with probenecid 2.5 mM. After incubation, plates were transferred to a fluorescence plate reader (Polastar BMG). In the experimental protocol, the baseline fluorescence was recorded ([…]) for 3 cycles. After, vehicle, compound at different concentrations and the corresponding antagonist, 10 µM AMTB for TRPM8 or 10 µM Ruthenium Red for TRPV1 were added to the well. Fluorescence intensity was recorded during 7 cycles more. Finally, the agonist 100 µM menthol for TRPM8 or 1 µM capsaicin for TRPV1 was added and fluorescence intensity was recorded during 10 cycles more.
The degree of inhibition of TRPM8 channel gating was calculated by comparison to calcium increase signal elicited by test substances and menthol at 100 µM. Decrease of menthol signal was expressed as percentage of inhibition (%). All data are expressed as mean ± standard deviation (SD). Each condition was assessed by triplicate (n = 3) in 3 independent experiments (N = 3). Z-factor was calculated in each assay using the following equation: […]. In all the experiments Z-factor was ≥ 0.5. To calculate IC50, normalized responses (%) versus log [µM] were adjusted to a non-linear fit with variable slope, a four-parameter dose–response curve following curve Y = 100/(1 + 10^((Log IC50-X)*HillSlope)) where […].

In data set [1] the test system is A549 (lung carcinoma, NSCLC). Description: SRB cytotoxicity assay, A549. To be noted: 72 h, SRB; for TGI A549: total growth inhibition; for TGI A549 / CC50: unit inferred; for GI50 / CC50: Homo sapiens, A549; for CC50: read-out: LC50 A549. Here is the method: (§1) Human tumor cell lines used in this study were purchased from the ATCC. A-549 (CCL-185), lung carcinoma; HT-29 (HTB-38), colorectal adenocarcinoma; MDA-MB-231 (HTB-26), breast adenocarcinoma; PSN1, pancreas adenocarcinoma.
(§2) All cell lines were maintained in DMEM (Dulbecco’s Modified Eagle's Medium) culture medium supplemented with 10% FBS (Fetal Bovine Serum), 100 Units/mL penicillin/streptomycin at 37 °C, 5% CO2 and 95% humidity.
(§3) Triplicate cultures were incubated for 72 h in the presence or absence of test compounds in dose–response curves (10 concentrations, typically ranging from 10 to 0.0026 µg/mL). A colorimetric assay using sulforhodamine B (SRB) was adapted for quantitative measurement of cell growth and cytotoxicity. A more detailed information on this assay is provides in the supplementary information. GI50 is the compound concentration that produces 50% inhibition on cell growth as compared to control cells.
(§4) In vitro bioassays for the detection of antitumor activity
(§5) The aim of this assay is to evaluate the in vitro cytostatic (ability to delay or arrest tumor cell growth) or cytotoxic (ability to kill tumor cells) activity of the samples […]
(§6) Name Nº ATCC Species Tissue Characteristics
(§7) A549 CCL-185 human lung lung carcinoma (NSCLC)
(§8) HT29 HTB-38 human colon colorectal adenocarcinoma
(§9) MDA-MB-231 HTB-26 human breast breast adenocarcinoma
(§10) PSN1 CRM-CRL-3211 human pancreas pancreas adenocarcinoma […]
(§11) A colorimetric assay, using Sulforhodamine B (SRB) reaction has been adapted to provide a quantitative measurement of cell growth and viability (following the technique described by Skehan et al. J. Natl. Cancer Inst. 1990, 82, 1107-1112 […]
(§12) This form of assay employs 96-well cell culture microplates following the standards of the American National Standards Institute and the Society for Laboratory […]
(§13) used in this study were obtained from the American Type Culture Collection (ATCC) and derive from different types of human cancer.
(§14) A549, HT29, MDA-MB-231 and PSN1 cells were maintained in Dulbecco’s
(§15) Modified Eagle Medium (DMEM) supplemented with 10% Fetal Bovine Serum (FBS), 2mM L-glutamine, 100 U/mL penicillin, and 100 U/mL streptomycin at 37 °C, 5% CO2 and 98% humidity. For the experiments, cells were harvested from subconfluent cultures using trypsinization and resuspended in fresh medium before counting and […]
(§16) A549, HT29, MDA-MB-231 and PSN1 cells were seeded in 96 well microtiter plates, at 5000 cells per well in aliquots of 150 µL, and allowed to attach to the plate surface for 18 hours (overnight) in drug free medium. After that, one control (untreated) plate of each cell line was fixed (as described below) and used for time zero reference value. Culture plates were then treated with test compounds (50 µL aliquots of 4X stock […]
(§17) solutions in complete culture medium plus 4% DMSO) using ten 2/5 serial dilutions (concentrations ranging from 10 to 0.003 µg/mL) and triplicate cultures (1% final concentration in DMSO). After 72 hours treatment, the antitumor effect was measured by using the SRB methodology: Briefly, cells were washed twice with PBS, fixed for 15 min in 1% glutaraldehyde solution at room temperature, rinsed twice in PBS, and stained in 0.4% SRB solution for 30 min at room temperature. Cells were then rinsed several times with 1% acetic acid solution and air-dried at room temperature. SRB was then extracted in 10 mM trizma base solution and the absorbance measured in an automated spectrophotometric plate reader at 490 nm.
(§18) Effects on cell growth and survival were estimated by applying the NCI algorithm (Boyd MR and Paull KD. Drug Dev. Res. 1995, 34, 91-109, DOI:10.1002/ddr.430340203). The values obtained in triplicate cultures were fitted by nonlinear regression to a four-parameters logistic curve by nonlinear regression analysis. . Using the absorbance measurements [time zero, (Tz), control growth, (C), and test growth in the presence of drug at the ten concentration levels (Ti)], the […]
For orientation: Sulforhodamine B stains cellular protein and so reports cell mass.

Data set [2] has as its system MDA-MB-231 (breast adenocarcinoma). Description: SRB cytotoxicity assay, MDA-MB-231. To be noted: 72 h, SRB; for TGI MDA-MB-231: total growth inhibition; for TGI MDA-MB-231 / CC50: unit inferred; for GI50 / CC50: Homo sapiens, MDA-MB-231; for CC50: read-out: LC50 MDA-MB-231. Here is the method:
as §1, §2, §3, §4, §5, §6, §7, §8, §9, §10, §11, §12, §13, §14, §15, §16, §17, §18

Data set [3] concerns PSN1 (pancreas adenocarcinoma). Description: SRB cytotoxicity assay, PSN1. To be noted: 72 h, SRB; for TGI PSN1: total growth inhibition; for TGI PSN1 / CC50: unit inferred; for GI50 / CC50: Homo sapiens, PSN1; for CC50: read-out: LC50 PSN1. As for the experimental part:
as §1, §2, §3, §4, §5, §6, §7, §8, §9, §10, §11, §12, §13, §14, §15, §16, §17, §18

Data set [4] has as its system MDA-MB-231 (breast adenocarcinoma). The experiment in a line: SRB cytotoxicity assay, MDA-MB-231. As to conditions: at 10 µg/mL.

Some results are limits rather than exact numbers.

T1 sequence (Q8R455 whole entry): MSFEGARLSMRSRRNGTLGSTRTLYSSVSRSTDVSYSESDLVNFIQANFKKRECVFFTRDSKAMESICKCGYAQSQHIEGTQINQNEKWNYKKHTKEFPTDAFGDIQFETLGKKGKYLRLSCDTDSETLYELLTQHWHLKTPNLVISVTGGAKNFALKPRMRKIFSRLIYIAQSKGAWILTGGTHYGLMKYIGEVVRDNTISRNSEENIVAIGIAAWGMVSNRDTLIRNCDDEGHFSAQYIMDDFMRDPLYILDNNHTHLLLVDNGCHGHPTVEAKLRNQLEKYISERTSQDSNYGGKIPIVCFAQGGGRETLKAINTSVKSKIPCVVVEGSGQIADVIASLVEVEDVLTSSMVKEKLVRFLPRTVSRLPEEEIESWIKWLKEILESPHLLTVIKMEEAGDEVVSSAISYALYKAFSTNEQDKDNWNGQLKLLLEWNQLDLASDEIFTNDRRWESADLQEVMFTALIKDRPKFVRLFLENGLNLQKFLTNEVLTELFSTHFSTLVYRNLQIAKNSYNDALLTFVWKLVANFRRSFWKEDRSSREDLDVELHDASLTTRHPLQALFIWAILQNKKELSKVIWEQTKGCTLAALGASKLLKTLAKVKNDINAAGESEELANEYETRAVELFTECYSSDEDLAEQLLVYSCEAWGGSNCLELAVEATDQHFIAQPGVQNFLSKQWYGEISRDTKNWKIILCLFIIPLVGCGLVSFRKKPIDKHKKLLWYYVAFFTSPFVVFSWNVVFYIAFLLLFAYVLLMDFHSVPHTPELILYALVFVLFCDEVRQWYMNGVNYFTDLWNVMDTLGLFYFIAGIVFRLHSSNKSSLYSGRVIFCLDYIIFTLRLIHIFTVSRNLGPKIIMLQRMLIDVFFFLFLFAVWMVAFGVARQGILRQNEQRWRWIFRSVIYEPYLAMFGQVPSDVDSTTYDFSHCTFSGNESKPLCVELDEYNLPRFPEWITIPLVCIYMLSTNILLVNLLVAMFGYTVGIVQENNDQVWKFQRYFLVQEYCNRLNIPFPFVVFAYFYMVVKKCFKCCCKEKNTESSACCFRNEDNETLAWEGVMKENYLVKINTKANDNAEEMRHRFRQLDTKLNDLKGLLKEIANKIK

`C[C@@H]1C(=O)N(C[C@H](Cc2ccccc2)NC(=O)OCc2ccccc2)[C@]1(Cc1ccccc1)C(=O)OCc1ccccc1` [Compound 24a, 4S-Benzyl-4-benzyloxycarbonyl-3S-methyl-1-[(2′S-benzyloxycarbonylamino-3′-phenyl)prop-1′-yl]-2-oxoazetidine]: at rat TRPM8 channel, the “% Blockade 5 µM” value is given as 65.4 ± 6.4%; the “% Blockade 50 µM” value came to 110.7 ± 11.7%; the IC50 (in general, the concentration at which inhibition is half-maximal) stood at 2.4 ± 1.2 µM. Moreover, in data set [1], the TGI A549 is more than 17.3 µM, growth was halved (GI50) at 3.29 µM and the CC50 was more than 17.3 µM. For the same compound, in data set [2], the TGI MDA-MB-231 is more than 17.3 µM; the GI50 – broadly, the concentration that inhibits growth by half – was more than 17.3 µM; the CC50 was more than 17.3 µM. Further, in data set [3], the TGI PSN1 is more than 17.3 µM, it took 5.55 µM to inhibit growth by half (GI50) and the CC50 was more than 17.3 µM. Besides, in data set [4], the “Cytotoxic activity against MDA-MB-231” value is “no activity”.

On to `C[C@@H]1C(=O)N(C[C@@H](Cc2ccccc2)NC(=O)OCc2ccccc2)[C@]1(Cc1ccccc1)C(=O)OCc1ccccc1` [Compound 29a, 4S-Benzyl-4-benzyloxycarbonyl-3S-methyl-1-[(2′R-benzyloxycarbonylamino-3′-phenyl)prop-1′-yl]-2-oxoazetidine], for which, at rat TRPM8 channel, the “% Blockade 5 µM” value is recorded as 97.2 ± 4.8%, the “% Blockade 50 µM” value amounted to 100.0 ± 5.0% and the IC50 was 0.4 µM. In addition, in data set [1], the TGI A549 was more than 17.3 µM, growth was halved (GI50) at 5.9 µM and the CC50 is more than 17.3 µM. Further, in data set [2], the TGI MDA-MB-231 is more than 17.3 µM, the GI50 came out at 12.7 µM and the CC50 is more than 17.3 µM. Also, in data set [3], the TGI PSN1 was more than 17.3 µM, the GI50 is 6.42 µM and the CC50 is more than 17.3 µM.

(Values after paper PMC7447632, “Highly functionalized β-lactams and 2-ketopiperazines as TRPM8 antagonists with antiallodynic activity” (Scientific Reports, 2020).)
